# Results published in ChEMBL document CHEMBL1149057, “Mucus synthesis and sulfhydryl groups in cytoprotection mediated by dehydroleucodine, a sesquiterpene lactone” (1994).
# Active and inactive are the calls of the source. The calls are words filed in the database; no cut-off is given here.
# Experiments:
# [1] = species on record: Rattus norvegicus; assay: Gastroprotective effect in pylorus-ligated Wistar rat assessed as inhibition of acid secretion; assay type: functional, organism-based
# [2] = test system: Rattus norvegicus; assay: Gastroprotective effect in fasted Wistar rat assessed as increase in rate of gastric mucus glycoprotein synthesis at 40 mg/kg, po after 1 hr by N-acetyl-D-[1-3H]glucosamine incorporation method relative to control; assay type: functional, Gastric mucosa
# [3] = test system: Rattus norvegicus; assay: Gastroprotective effect against ethanol-induced gastric damage in fasted Wistar rat assessed as extent of mucosal damage at 40 mg/kg, po pretreated 30 mins before ethanol challenge measured after 60 mins
# [4] = test system: Rattus norvegicus; assay: Gastroprotective effect against ethanol-induced gastric damage in fasted Wistar rat assessed as extent of mucosal damage at 40 mg/kg, po pretreated 30 mins before ethanol challenge in presence of N-ethylmaleimide pretreated 60 mins before ethanol challenge
# [5] = test system: Rattus norvegicus; assay: Gastroprotective effect against ethanol-induced gastric damage in fasted Wistar rat assessed as extent of mucosal damage at 40 mg/kg, po pretreated 30 mins before ethanol challenge in presence of indomethacin pretreated 60 mins before ethanol challenge; assay type: functional, Stomach
# [6] = test system: Rattus norvegicus; assay: Gastroprotective effect against ethanol-induced gastric damage in fasted Wistar rat assessed as extent of mucosal damage at 40 mg/kg, po pretreated 30 mins before ethanol challenge in presence of N-ethylmaleimide and indomethacin pretreated 60 mins before ethanol challenge
smiles,measurement,setting,value
C=C1C(=O)O[C@@H]2[C@H]3C(C)=CC(=O)C3=C(C)CC[C@@H]12 [DEHYDROLEUCODIN],Activity,[1],inactive
same,fold change (FC),[2],7
same,UI,[3],0.3
same,UI,[4],2.4
same,UI,[5],1.2
same,UI,[6],3.3
